Values after ≈ are worked out from the molar mass of the structure shown.
Legend:
Staphylococcus aureus = test: Antimicrobial activity against Staphylococcus aureus at 100 ug after 18 hrs by paper disk agar diffusion method; type: functional; settings: read-out: IZ
P388 = test: Cytotoxicity against mouse P388 cells after 72 hrs by MTT assay; type: functional, cell-based; settings: P388, 72 h
KB = test: Cytotoxicity against human KB cells after 72 hrs by MTT assay; type: functional, cell-based
[1] = Cytotoxicity against human NSCLC-N6 cells after 72 hrs by MTT assay; type: functional, cell-based; settings: NSCLC-N6, 72 h
Candida albicans = test: Antimicrobial activity against Candida albicans at 100 ug after 18 hrs by paper disk agar diffusion method; type: functional; settings: read-out: IZ
Candida tropicalis = test: Antimicrobial activity against Candida tropicalis at 100 ug after 18 hrs by paper disk agar diffusion method; type: functional; settings: read-out: IZ

| Compound | zone of inhibition at 100 µg/disc (Staphylococcus aureus) | IC50 (P388) | IC50 (KB) | IC50 [1] | zone of inhibition at 100 µg/disc (Candida albicans) | zone of inhibition at 100 µg/disc (Candida tropicalis) |
| --- | --- | --- | --- | --- | --- | --- |
| Nc1nc2cnncc2[nH]1 | 12 mm | 12 µg/mL (≈ 88.8 µM) | 5 µg/mL (≈ 37 µM) | 10 µg/mL (≈ 74 µM) | 10 mm | 11 mm |
| O=Cc1ccc(O)cc1 [4-HYDROXYBENZALDEHYDE] | 8 mm | – | – | – | 7 mm | 7 mm |

Reference: ChEMBL document CHEMBL1148079, “Zarzissine, a new cytotoxic guanidine alkaloid from the Mediterranean sponge Anchinoe paupertas” (J Nat Prod, 1994)
